{
  "source": "patent US9987296B2",
  "about": "“Compositions including anthocyanin or anthocyanidin for the prevention or treatment of Articular cartilage-associated conditions” (priority 2008, dated 2018)",
  "key": {"[1]": {"system": "bovine cartilage explants", "experiment": "Matrix synthesis (35S uptake) in bovine cartilage explants", "type": "cell-based"}, "human cartilage explants": {"system": "human cartilage explants", "experiment": "Cartilage breakdown as determined by GAG release in human cartilage explants", "type": "cell-based", "settings": "for GAG release under basal conditions: high dose (50 ug/mL) alone, no IL-1; for IL-1 induced GAG release (chondroprotection): human cartilage explants, IL-1 plus test agent 5 or 50 ug/mL, 72 hours", "source_text": "Human osteoarthritic cartilage samples were procured through the Tissue Procurement Facility of the University Hospitals of Cleveland/Case Western Reserve University and with prior approval of the IRB of University Hospitals of Cleveland. The cartilage samples were obtained from patients undergoing total anthroplasty of the knee due to degenerative joint diseases. In all cases care was taken to use only “macroscopically normal” cartilage samples. No samples were exposed to radiation solely for the purpose of these studies but almost all patients will have received X-rays as part of their clinical presentation during the execution of care. The same donor tissue was not used in all experiments but untreated controls were included in all protocols.\nFull thickness cartilage slices (20-25 mg) were dissected from the cartilage using a sterile scalpel blade. Four to five cartilage pieces that were approximately equal in size and weight were transferred to each well of a 24-well, flat bottom plate (Nuns, Denmark) containing DMEM:F12 (1:1) supplemented with antibiotics and 10% FCS and cultured for 24 hours. Subsequently the cartilage explants were cultured overnight in serum free media. The cartilage explants were treated with IL-β alone or with IL-β positive test agents for 72 hours in serum free media. Explants cultured in the absence of IL-β or test agents were used as controls. Additionally, the actions of kuromanin or cyanidin chloride were examined independently of IL-β exposure (5 ng/mL). Where appropriate, explants were exposed to test agents 15 minutes prior to the treatment with IL-β. Total glycosaminoglycan present in the culture supernatant was estimated as described below.\nAt the end of culture period, the culture medium was collected from each group. A 50 uL aliquot of collected supernatant from each sample was utilized to estimate the total glycosaminoglycan (GAG) concentration by a colorimetric method employing a DMMB as previously described (Miller M J S et al., BMC Complementary and Alternative Med 2006 6; 13). Color intensity was read spectrophotometrically at 535 nm using the Lambda 25 spectrophotometer (Perkin-Elmer, CT) and the values were derived from a standard curve prepared using different concentrations of chondroitin sulfate. Results are expressed as micrograms of glycosaminoglycan released per mg of cartilage tissue."}, "[2]": {"system": "Human articular chondrocytes", "experiment": "Cell viability (calcein AM / ethidium homodimer staining)", "type": "cell-based", "settings": "96 hours", "source_text": "Chondrocytes were isolated from non-arthritic regions of adult human articular cartilage (N=3 donors) and expanded in tissue culture flasks in DMEM supplemented with 10% calf serum.\nAt higher concentrations, the color of the anthocyanin interfered with the spectrophotometer reading; therefore, cell viability was additionally measured with calcein staining as follows: Live and dead cells were simultaneously viewed in situ with a confocal microscope (LSM 510; Zeiss, Wetzlar, Germany), using a fluorescent double stain. Calcein AM (1 uM; Invitrogen, Carlsbad, Calif.), a fluorescein derivative that is metabolized by nonspecific esterase present in viable cells, was used to stain live cells. The use of 8 uM ethidium homodimer (Invitrogen), a nucleic acid stain that is excluded by intact cell membranes, enabled visualization of the nuclei of dead cells. After 96-hour exposure to the appropriate concentration of anthocyanins, chondrocytes were cultured in DMEM supplemented with Calcein AM and ethidium homodimer for 45 minutes. Live and dead cells were counted using an automated image analysis script written in Matlab (MathWorks, Natick, Mass.) to measure percentage cell viability."}, "[3]": {"system": "rodent pancreatic beta-cells", "settings": "in culture, with 4 and 10 mM glucose; cited from earlier work"}, "bovine chondrocytes": {"system": "bovine chondrocytes", "experiment": "Matrix synthesis rate (35S) of bovine chondrocytes in alginate beads", "type": "cell-based", "settings": "100 uM with TGF-β 10 ng/mL, 24 hours", "quoted_text": "Chondrocytes were isolated from weight-bearing regions of young (18-30 months old) bovine femoral condyles. Primary cells were obtained from 3 different animals and suspended in beads of 2% alginate. The alginate beads were precultured in DMEM supplemented with 10% calf serum for 48 hours. Before the experiments, the chondrocytes were serum-starved overnight with 0.1% serum to reduce the effect of serum and to reduce anabolic activity to baseline.\nFor each treatment condition, 10 millicuries of ^35S was added to each well and incubated for the appropriate duration. At the appropriate harvest time point, each well was then washed extensively with PBS (5-6 times with 500 uL, of PBS), before trypsin and EDTA was added to dissolve alginate. After 20-30 minutes, the dissolved gels and released cells were transferred into 1.5 ml Eppendorf tubes with 150 uL, of calf serum (to promote pellet formation) and the cells were centrifuged at 2000 rpm for 5 minutes. The supernatant was removed via pipette without disturbing the cell pellet. The remaining cell and supernatant (approximately 300 ul) was then mixed with 500 uL of PBS and transferred to scintillation vials, to which 5 ml of scintillation fluid was dispensed. Each scintillation vial was capped, thoroughly vortexed and then placed in a gamma counter to measure gamma radiation emission for each sample. Each sample was measured for 5 minutes."}, "[4]": {"system": "bovine cartilage explants", "experiment": "Mucopolysaccharide production (35 Sulfur uptake) in bovine cartilage explants", "type": "cell-based", "procedure": "Bovine cartilage explants were placed in culture including 10% FCS and Vitamin C. IL-1 was added to a test population and IL-1 was not added to control. Explants were cultured for 24 hours. Kuromanin chloride was then added to each culture. Mucopolysaccharides were measured using radioactive 35 Sulfur uptake."}, "[5]": {"settings": "cited from earlier work"}, "[6]": {"settings": "in vitro; cited from earlier work"}, "fibroblast cells": {"system": "fibroblast cells", "experiment": "Fibroblast cell proliferation", "type": "cell-based", "settings": "for cell proliferation: fibroblasts", "procedure": "(§1) For completeness, the relationship between a saccharide (dextrose) and TGF-β was also examined. Fibroblasts were treated with varying amounts of dextrose and measured for the release of TGF-β. […] It appeared that 0.5% glucose provided the greatest proliferation of fibroblasts."}, "TGF-β": {"system": "TGF-β", "experiment": "TGF-β by ELISA after exposure of fibroblast cells to dextrose", "type": "cell-based", "settings": "fibroblasts", "procedure": "as §1"}},
  "note": "“Also recorded” adds a separate entry of the source.",
  "data": [
    {"smiles": "Oc1cc(O)c2cc(O)c(-c3ccc(O)c(O)c3)[o+]c2c1", "note": "[Cyanidin chloride]", "values": [
      {"measurement": "chondroprotective activity, greater than under low glucose", "setting": "[1]; higher glucose conditions (5%) as printed", "value": "~20", "unit": "%"},
      {"measurement": "chondroprotective activity", "setting": "[1]; low glucose levels (2.5%) as printed", "value": "some chondroprotective activity"},
      {"measurement": "GAG release under basal conditions", "setting": "human cartilage explants", "value": "not evident"},
      {"measurement": "IL-1 induced GAG release (chondroprotection)", "setting": "human cartilage explants; listed as CC1", "value": "blocked IL-1 induced GAG release"},
      {"measurement": "IL-1 induced GAG release (chondroprotection)", "setting": "human cartilage explants; listed as cyanidin", "value": "able to prevent GAG (glycosaminoglycan) release compared to control; also recorded: effective chondroprotective agents limiting the degradation of human cartilage against the catabolic effects of IL-1"},
      {"measurement": "IL-1 induced GAG release (chondroprotection)", "setting": "human cartilage explants; listed as cyanidin chloride", "value": "chondroprotective; also recorded: blocked"},
      {"measurement": "cell viability", "setting": "[2]; 500 uM", "value": "completely reducing cell viability"},
      {"measurement": "toxicity relative to the other compounds tested", "setting": "[2]; concentrations above 100 uM up to 500 uM", "value": "most toxic"}
    ]},
    {"smiles": "OC[C@H]1O[C@@H](Oc2cc3c(O)cc(O)cc3[o+]c2-c2ccc(O)c(O)c2)[C@H](O)[C@@H](O)[C@@H]1O.[Cl-]", "note": "[Kuromanin chloride]", "values": [
      {"measurement": "insulin secretion", "setting": "[3]", "value": "stimulate insulin secretion"},
      {"measurement": "matrix synthesis rates (growth factor synergy)", "setting": "bovine chondrocytes", "value": "synergistic effect on matrix synthesis rates"},
      {"measurement": "production of mucopolysaccharides", "setting": "[4]; bovine cartilage preincubated with IL-1", "value": "increased production of mucopolysaccharides; also recorded: increase of mucopolysaccharide"},
      {"measurement": "production of mucopolysaccharides", "setting": "[4]; control bovine cartilage explants, no IL-1, listed as kuromanin", "value": "increase of mucopolysaccharide"},
      {"measurement": "production of mucopolysaccharides", "setting": "[4]; control bovine cartilage explants, no IL-1, listed as kuromanin chloride", "value": "increased production of mucopolysaccharides"},
      {"measurement": "half-life", "setting": "[5]", "value": "1.5 to 2", "unit": "h"},
      {"measurement": "oxygen radical absorbing capacity compared to Trolox (Vitamin E)", "setting": "[6]", "value": 3.5, "unit": "times"},
      {"measurement": "GAG release under basal conditions", "setting": "human cartilage explants", "value": "some catabolic effects that may reflect cell toxicity; also recorded: tendency for the high dose of kuromanin to promote GAG release"},
      {"measurement": "IL-1 induced GAG release (chondroprotection)", "setting": "human cartilage explants", "value": "able to prevent GAG (glycosaminoglycan) release compared to control; also recorded: effective chondroprotective agents limiting the degradation of human cartilage against the catabolic effects of IL-1; also recorded: blocked"},
      {"measurement": "IL-1 induced GAG release (chondroprotection)", "setting": "human cartilage explants; listed as KuCl", "value": "blocked IL-1 induced GAG release"}
    ]},
    {"smiles": "O=C[C@H](O)[C@@H](O)[C@H](O)[C@H](O)CO", "note": "[glucose]", "values": [
      {"measurement": "concentration providing the greatest proliferation of fibroblasts", "setting": "fibroblast cells", "value": 0.5, "unit": "%"},
      {"measurement": "cell proliferation", "setting": "fibroblast cells; higher concentrations of glucose", "value": "did not"},
      {"measurement": "cell proliferation", "setting": "fibroblast cells; lower concentrations of glucose", "value": "increased cell proliferation"},
      {"measurement": "presence of TGF-β", "setting": "TGF-β; higher amounts of glucose", "value": "decreased the presence of TGF-β"},
      {"measurement": "TGF-β expression", "setting": "TGF-β; varying amounts of dextrose", "value": "does not increase TGF-β expression"}
    ]}
  ]
}
